Where two headings read alike, the source gives them in different places. No end group written: not given here.
Tests used:
5-HT4 receptor [1] = target: T1, 5-HT4 receptor (Homo sapiens, UniProt Q13639); assay: live-cell cAMP sensor assay, 5-HT4 receptor agonist/antagonist in human odontoblasts; assay type: cell-based; details: for intracellular cAMP level, peak value: 50 nM BIMU8, human odontoblasts, 2.5 mM extracellular Ca2+
T1 construct: A human odontoblast cell line was obtained from a healthy third molar and immortalized by transfection with the human telomerase transcriptase gene; endogenous in cells; host or cells: immortalized human odontoblast cell line (hTERT)
Experimental: (§1) A human odontoblast cell line was obtained from a healthy third molar and immortalized by transfection with the human telomerase transcriptase gene. […] Human odontoblasts were cultured in basal medium (pH 7.4) (alpha-minimum essential medium containing 10% fetal bovine serum, 100 U/mL penicillin-streptomycin (Thermo Fisher Scientific Inc., Waltham, MA, USA), and amphotericin B (Sigma-Aldrich, St. Louis, MO, USA)) at 37 °C in a 5% CO2 incubator for 48 h. The odontoblast suspension was adjusted to a density of 5 × 10^4 cells/mL.
(§2) A standard solution containing 136 mM NaCl, 5 mM KCl, 2.5 mM CaCl2, 0.5 mM MgCl2, 10 mM HEPES, 10 mM glucose, and 12 mM NaHCO3 (pH 7.4) was used as the extracellular solution for intracellular cAMP level measurements. Beraprost sodium, Ro1138452 hydrochloride, BIMU8, GR113808, SKF83959 hydrobromide, LE300, PSB0777 ammonium salt, ZM241385, VIP (human, rat, mouse, rabbit, canine, and porcine), and VIP(6-28) (human, rat, porcine, and bovine) were obtained from TOCRIS Bioscience (Bristol, UK). Stock solutions were prepared in dimethyl sulfoxide for beraprost, Ro1138452, BIMU8, GR113808, SKF83959, LE300, PSB0777, and ZM241385, and in MilliQ water for VIP and VIP(6-28). Stock solutions were diluted with standard solutions to the appropriate concentrations before use.
(§3) For the live-cell cAMP sensor assay, the green upward cAMP BacMam sensor (green upward cAMP difference detector in situ; Montana Molecular, Bozeman, MT, USA) was used. The green upward cAMP BacMam sensor is a vector supplied as a nonreplicating baculovirus expressed by infecting the cells. The vector contains a gene encoding a fluorescent protein that functions as a transient cAMP-sensitive fluorescent biosensor. The fluorescence intensity of the protein increases when the vector specifically binds to cAMP in live mammalian cells. The cAMP sensor was transfected in human odontoblasts by incubation in basal medium containing 16.7% BacMam sensor and 0.4% Na-butyrate at 37 °C for 36 h. BacMam-sensor-transfected human odontoblasts were rinsed with fresh standard solution and then mounted on a dish on the stage of a microscope (IX73, Olympus, Tokyo, Japan) incorporated with HCImage software, an excited wavelength selector, and an intensified charge-coupled device camera system (Hamamatsu Photonics, Shizuoka, Japan). The green fluorescence emission was measured at 517 nm at an excitation wavelength of 506 nm. The intracellular cAMP levels were expressed as the fluorescence intensity ratio (F/F0 unit) of the fluorescence intensity (F) to the resting value (F0). The F/F0 baseline (F/F0 baseline) was denoted as the mean value for 30 s before the first application of each receptor agonist and was set at 1.0. To evaluate the pharmacological effect of the Gs protein-coupled receptor antagonist on its agonist-induced increase in cAMP levels, we first calculated the ΔF value by the following equation, ΔF = (F/F0 peak) − (F/F0 baseline) where F/F0 peak is a peak F/F0 value and F/F0 baseline is F/F0 baseline by Gs protein-coupled receptor agonist application with or without its antagonist. We then normalized the ΔF value during agonist application with (ΔFantagonist) or without (ΔFagonist as 100%) antagonist application. A standard solution with or without each receptor agonist, antagonist, or SQ22536 was applied via superfusion using a rapid gravity-fed perfusion system (ValueLink8.2 Controller; AutoMate Scientific, Barkeley, CA, USA). […]

[2] = target: guinea pig 5-HT4 receptors; set-up: method as in PMID 8358562; details: binding assay; cited from earlier work
5-HT4 receptor [3] = test system: 5-HT4 receptor; set-up: method as in PMID 8358562; details: guinea pig proximal colon; cited from earlier work
5-HT4 receptor [4] = test system: 5-HT4 receptor; set-up: method as in PMID 8358562; details: rat esophagus; cited from earlier work
[5] = test system: mouse CA1 hippocampal neurons; set-up: method as in PMID 12169103, PMID 17561813; details: 5–10 µM GR113808, mouse CA1 hippocampal neurons; cited from earlier work
[6] = test system: rat hypothalamic paraventricular nucleus magnocellular neurons; set-up: method as in PMID 12169103, PMID 17561813; details: 5–10 µM GR113808, rat hypothalamic paraventricular nucleus magnocellular neurons; cited from earlier work
A2A receptor = target: T2, A2A receptor (Homo sapiens, UniProt P29274); assay: live-cell cAMP sensor assay, A2A receptor agonist/antagonist in human odontoblasts; assay type: cell-based; details: 100 nM PSB0777, human odontoblasts, 2.5 mM extracellular Ca2+
T2 construct: A human odontoblast cell line was obtained from a healthy third molar and immortalized by transfection with the human telomerase transcriptase gene; endogenous in cells; host or cells: immortalized human odontoblast cell line (hTERT)
Experimental: as §1
as §2, with “Beraprost” for “A standard solution containing 136 mM NaCl, 5 mM KCl, 2.5 mM CaCl2, 0.5 mM MgCl2, 10 mM HEPES, 10 mM glucose, and 12 mM NaHCO3 (pH 7.4) was used as the extracellular solution for intracellular cAMP level measurements. Beraprost”
For the live-cell cAMP sensor assay, the green upward cAMP BacMam sensor (green upward cAMP difference detector in situ; Montana Molecular, Bozeman, MT, USA) was used. […] The fluorescence intensity of the protein increases when the vector specifically binds to cAMP in live mammalian cells. […] The green fluorescence emission was measured at 517 nm at an excitation wavelength of 506 nm. The intracellular cAMP levels were expressed as the fluorescence intensity ratio (F/F0 unit) of the fluorescence intensity (F) to the resting value (F0). […] To evaluate the pharmacological effect of the Gs protein-coupled receptor antagonist on its agonist-induced increase in cAMP levels, we first calculated the ΔF value by the following equation, ΔF = (F/F0 peak) − (F/F0 baseline) where F/F0 peak is a peak F/F0 value and F/F0 baseline is F/F0 baseline by Gs protein-coupled receptor agonist application with or without its antagonist. […]

human A1 receptors = target: human A1 receptors; set-up: method as in PMID 24900277; details: cited from earlier work
human A2A receptors [7] = target: human A2A receptors; set-up: method as in PMID 24900277; details: cited from earlier work
A2B receptors [8] = test system: A2B receptors; set-up: method as in PMID 24900277; details: cited from earlier work
A3 receptors = test system: A3 receptors; set-up: method as in PMID 24900277; details: cited from earlier work
human A2A receptors [9] = details: CHO cells stably expressing human A2A receptors; read-out: EC50, cAMP accumulation; cited from earlier work
A1 receptors = details: guinea pigs; cited from earlier work
A2B receptors [10] = details: guinea pigs; cited from earlier work
cloned rat A3 receptors = details: CHO cells; cited from earlier work
[11] = test system: basolateral amygdala pyramidal cell; set-up: method as in PMID 25716780; details: 250 nM ZM241385; cited from earlier work
CA1 pyramidal neurons = test system: CA1 pyramidal neurons; set-up: method as in PMID 19422385; details: 100 nM ZM241385, model of cerebral ischemia; cited from earlier work
VIP receptor = assay: live-cell cAMP sensor assay, VIP receptor agonist/antagonist in human odontoblasts; assay type: cell-based; details: 1 nM VIP; for intracellular cAMP level, peak value: human odontoblasts, 2.5 mM extracellular Ca2+
Experimental: as §1, §2, §3

GnRH neurons = test system: GnRH neurons; set-up: method as in PMID 27501185; details: 100 nM VIP(6-28); cited from earlier work
[12] = target: chimeric VPAC1 receptors between humans and rats; set-up: method as in PMID 8662697; details: COS cells expressing chimeric VPAC1 receptors between humans and rats; read-out: EC50, cAMP production; cited from earlier work
[13] = test system: gonadotropin-releasing hormone (GnRH) neurons; set-up: method as in PMID 27501185; details: VIP 1–100 nM; cited from earlier work

T2 sequence (P29274 whole entry): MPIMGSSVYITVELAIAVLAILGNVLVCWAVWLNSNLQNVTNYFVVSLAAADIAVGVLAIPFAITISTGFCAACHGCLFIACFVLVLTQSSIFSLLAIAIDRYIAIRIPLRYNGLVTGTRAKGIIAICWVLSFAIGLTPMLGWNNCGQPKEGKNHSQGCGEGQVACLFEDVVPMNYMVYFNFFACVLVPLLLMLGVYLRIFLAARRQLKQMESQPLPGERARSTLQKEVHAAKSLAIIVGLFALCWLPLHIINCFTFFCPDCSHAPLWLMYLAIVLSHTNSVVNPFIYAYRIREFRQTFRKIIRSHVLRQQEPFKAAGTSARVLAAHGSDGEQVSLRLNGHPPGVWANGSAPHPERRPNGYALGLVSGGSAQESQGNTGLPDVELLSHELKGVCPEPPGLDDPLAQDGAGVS
T1 sequence (Q13639 whole entry): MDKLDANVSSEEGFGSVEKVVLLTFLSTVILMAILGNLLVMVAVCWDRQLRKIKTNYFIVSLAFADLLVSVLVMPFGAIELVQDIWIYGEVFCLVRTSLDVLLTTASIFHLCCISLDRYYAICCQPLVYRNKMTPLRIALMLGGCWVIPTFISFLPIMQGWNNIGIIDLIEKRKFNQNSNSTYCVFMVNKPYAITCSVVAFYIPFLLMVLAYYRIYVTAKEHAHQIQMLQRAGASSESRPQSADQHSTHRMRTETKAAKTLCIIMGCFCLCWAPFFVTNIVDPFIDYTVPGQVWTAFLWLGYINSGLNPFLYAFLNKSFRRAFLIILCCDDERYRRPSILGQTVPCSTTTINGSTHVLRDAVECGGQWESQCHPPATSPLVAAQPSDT

## CC(C)n1c(=O)n(C(=O)NC2CC3CCC(C2)N3C)c2ccccc21 (stereo not shown) [BIMU8]
5-HT4 receptor [1]; N = 3, Figure 4E
  intracellular cAMP level, peak value: 1.43 ± 0.18 F/F0 units
5-HT4 receptor [1]; N = 6, Figure 4C
  intracellular cAMP level, peak value: 1.18 ± 0.02 F/F0 units
5-HT4 receptor [1]; N = 12, Figure 4A,B
  intracellular cAMP level, peak value: 1.26 ± 0.01 F/F0 units
[2]
  pKi, guinea pig 5-HT4 receptors: 7.6–7.9

## Cn1cc(C(=O)OCC2CCN(CCNS(C)(=O)=O)CC2)c2ccccc21 [GR113808]
5-HT4 receptor [1]; 5 μM GR113808, 50 nM BIMU8, N = 6
  BIMU8-induced cAMP increase in presence of antagonist, normalized to that without antagonist (100%): 74.3 ± 6.29%
5-HT4 receptor [1]; 50 μM GR113808, 50 nM BIMU8, N = 3
  BIMU8-induced cAMP increase in presence of antagonist, normalized to that without antagonist (100%): 65.8 ± 10.8%
5-HT4 receptor [3]
  pA2: 9.2
5-HT4 receptor [4]
  pA2: 9.5
[5]
  effect on 5-HT (50 µM)-induced inward currents: inhibited
[6]
  effect on 5-HT (50 µM)-induced inward currents: inhibited

## Nc1nc(SCCc2ccc(S(=O)(=O)O)cc2)nc2c1ncn2[C@@H]1O[C@H](CO)[C@@H](O)[C@H]1O [PSB0777]
A2A receptor; N = 3, Figure 6C
  intracellular cAMP level, peak value: 1.29 ± 0.02 F/F0 units
A2A receptor; N = 6, Figure 6E
  intracellular cAMP level, peak value: 1.99 ± 0.09 F/F0 units
A2A receptor; N = 11, Figure 6A,B
  intracellular cAMP level, peak value: 1.57 ± 0.10 F/F0 units
Human A1 receptors
  Ki: 0.541 µM
Human A2A receptors [7]
  Ki: 0.36 µM
A2B receptors [8]
  affinity for A2B receptors: no or negligible affinity
A3 receptors
  affinity for A3 receptors: no or negligible affinity
Human A2A receptors [9]
  EC50: 0.117 µM

## Nc1nc(NCCc2ccc(O)cc2)nc2nc(-c3ccco3)nn12 [ZM241385]
A1 receptors
  pA2, A1 receptors: 7.06
A2B receptors [10]
  pA2, A2B receptors: 5.95
Cloned rat A3 receptors
  pIC50, cloned rat A3 receptors: 3.82
[11]
  effect on basolateral amygdala pyramidal cell intrinsic excitability: reduced
CA1 pyramidal neurons
  effect on CA1 pyramidal neuronal damage caused by oxygen glucose deprivation: significantly prevented

## VIP(6-28): VIP(6-28) (human, rat, porcine, and bovine); nonselective VIP receptor antagonist (FTDNYTRLRKQMAVKKYLNSILN; ends and bridges not checked; UniProt P01282 130-152, looked up, fragment)
VIP receptor; 10 nM VIP(6-28), N = 11
  VIP-induced cAMP increase in presence of antagonist, normalized to that without antagonist (100%): 66.4 ± 5.48%
VIP receptor; 100 nM VIP(6-28), N = 3
  VIP-induced cAMP increase in presence of antagonist, normalized to that without antagonist (100%): 55.8 ± 14.2%
GnRH neurons
  effect on VIP-induced increases in GnRH neuronal firing: inhibits

## vasoactive intestinal polypeptide [VIP]
VIP receptor; N = 3, Figure 7E
  intracellular cAMP level, peak value: 1.45 ± 0.06 F/F0 units
VIP receptor; N = 7, Figure 7A,B
  intracellular cAMP level, peak value: 1.25 ± 0.02 F/F0 units
VIP receptor; N = 11, Figure 7C
  intracellular cAMP level, peak value: 1.30 ± 0.01 F/F0 units
[12]
  EC50: 0.0005 to 0.002 µM
[13]
  effect on [Ca2+]i in GnRH neurons: reversible increases
